Series [1] deals with U87 glioblastoma cell line. The experiment in a line: 3H-thymidine assay of U87 cell proliferation. Format: cell-based, human. The conditions noted are these: U87 cells, 5 nanomoles/500 microliters; for 3H-thymidine incorporation, mean ± SEM: 2 days; for % Control (proliferation): 2 days (48 hours). The method, then:
(§1) Antisense oligonucleotides were incubated with glioblastoma (T98, U87, U373) and medulloblastoma (DAOY) cell lines when they were approximately 60% confluent. Antisense oligonucleotides were added at 5 nanomoles/500 microliters and incubated for 2 days in phosphate buffered saline. Growth of cells lines was measured at 2 days using a standard ^3 H-thymidine assay. Coligan et al., Current Protocols in Immunology, Vol. 2, pg.

Series [2] concerns T98 glioblastoma cell line. Kind of series: 3H-thymidine assay of T98 cell proliferation. Format: cell-based, human. The conditions noted are these: T98 cells, 5 nanomoles/500 microliters; for 3H-thymidine incorporation, mean ± SEM: 2 days; for % Control (proliferation): 2 days (48 hours). How it is done:
as §1

The test system of series [3] is U373 glioblastoma cell line. Kind of series: 3H-thymidine assay of U373 cell proliferation. Format: cell-based, human. The conditions noted are these: U373 cells, 5 nanomoles/500 microliters; for 3H-thymidine incorporation, mean ± SEM: 2 days; for % Control (proliferation): 2 days (48 hours). The method, then:
as §1

In series [4] the test system is DAOY medulloblastoma cell line. Kind of series: 3H-thymidine assay of DAOY cell proliferation. Format: cell-based, human. Conditions: DAOY cells, 5 nanomoles/500 microliters; for 3H-thymidine incorporation, mean ± SEM: 2 days; for % Control (proliferation): 2 days (48 hours). How it is done: as §1
The subject of the next series is EGF receptor. The experiment in a line: EGF receptor expression by flow cytometry in T98 and U87 cells. Format: cell-based, human. Conditions: 10 μM, 48 hours. How it is done: The effects of c-myb antisense on the expression of epidermal growth factor (EGF) receptors in T98 and U87 cells in vitro was examined using a flow cytometric approach to quantify fluorescently labeled receptors. T98 and U87 cell lines that were treated with 10 μM antisense oligonucleotides for 48 hours were harvested. About 10^5 10^6 (number of cells) were incubated with fluorescently labeled antibody to EGF receptor (available from Upstate Biotech, Inc.) for 24 hours. The cells were then analyzed using a Beckman FACS cell sorter.
Cells for receptor expression assays were harvested, washed twice in PBS and fixed in 70% ethanol of 2% paraformaldehyde. After washing, cells were incubated with appropriate concentrations of specific receptor antibodies for 2-12 hours. Antibody conjugated FITC was then added to the cell suspensions. Cells were washed well between steps and resuspended in Hanks balanced salt solution, 1% sodium azide, and 1% bovine serum albumin. FITC fluorescence was then assayed by flow cytometry counting 10,000 cells per sample. The amount of fluorescently labeled EGF receptor and PDGF receptor were determined by standard flow cytometry analysis.

In the next series the test system is U87 gliomas. Kind of series: Intraflank U87 tumors in nude mice, intratumoral injection. Format: in vivo, athymic nude mice. The conditions noted are these: for Change in tumor size at day 21: 100 μM, 50 μl (5 nanomoles/injection) intratumorally every two days, days 13 to 21. The method, then: Solid U87 gliomas were established in the flanks of athymic nude mice aged 4-6 weeks. Each animal received 5×10^6 U87 cells in 200 μl of medium. The cells were injected subcutaneously into one flank through a 25-gauge needle attached to a tuberculin syringe.
Cells were initially grown in a monolayer at 37° C. in DMEM medium containing 10% fetal calf serum, 2 mM glutamine, 1000 IU/ml of penicillin, and 100 μg/ml of streptomycin. Cells were harvested from culture flasks using trypsin immediately before injection and were kept on ice until the time of injection. Before injection the number of viable cells were confirmed by trypan blue exclusion. Past experience has shown that approximately 90% of tumors will successfully grow in the flank after U87 cell inoculation.
Tumors were allowed to grow for 14 days. Tumor size was evaluated with Vernier calipers using the formula 1/2 length(width)^2 where the length was the longest dimension and the width was the diameter perpendicular to the length. AONcmyb(2-7) was then injected using a Hamilton syringe directly into the tumor at a concentration of 0, 1, 10, or 100 μM in 50 μl volumes on alternate days for 8 days (FIG. 1).
The effects of administering 100 μM concentrations of AONcmyb(2-7) and AONcmyb(182-188) with their corresponding nonsense oligonucleotides, NONcmyb(2-7) and NONcmyb(182-188) along with Hank's Balanced Salt Solution as controls was compared. From days 13 to 21 animals received 50 μl(5 nanomoles/injection) injections intratumorally of either antisense, nonsense, or HBSS every two days.

Series [5] concerns human U87 glioblastoma cells. Kind of series: Intracerebral infusion, survival of nude rats with intrastriatal U87 xenografts. Format: in vivo. The conditions noted are these: 0.1 nmole/hour continuous infusion over 14 days; saline animals survived only 13 days. The method, then:
The effects of infusing c-myb antisense to codons 2-7 on the survival of nude rats with intrastriatal xenografts of human U87 glioblastoma cells was examined. A dose of 0.1 nmole/hour was infused. This dose is equivalent to the delivery of 100 µM of c-myb antisense injected directly into intraflank U87 tumors in 50 Ul volumes on alternate days. Animals received continuous infusions of either c-myb antisense or saline by Alzet Osmotic Minipump (Alza, Palo Alto, Calif.) over a period of 14 days. The pump was implanted immediately above the site of the tumor.

A short description of series [6]: Toxicity of intraventricular antisense administration (Whitesell et al.). The conditions noted are these: 0.1 nmole/hr versus toxic 3.0 nmole/hr. Format: in vivo, rats. How it is done: In a study assessing the toxicity of intraventricular antisense administration (Whitesell et al., Proc. Natl. Acad. Sci., 90:4665-4669, 1993), it was determined that dosages of 1.5 nmoles/hr were well tolerated in rats while a dose of 3.0 nmole/hr was toxic. […] Therefore, it is believed that an increase in dose of the c-myb antisense can be administered that will improve survival without toxic side effects.

Experimental findings from US5994320A, “Antisense oligonucleotides and methods for treating central nervous system tumors” (Regents of the University of Minnesota, priority 1997, dated 1999) are described below.

In the case of “5'-GTG CCG GGG TCT TCG GGC-3' (antisense GTGCCGGGGTCTTCGGGC; chemistry not given here) [AONcmyb(2-7), antisense to the initiator region of c-myb, codons 2-7]”, the “3H-thymidine incorporation, mean ± SEM” value in series [1] was 74,688 ± 10,145 dpm; in series [2], 67,318 ± 6,183 dpm; in series [3] it was 402,504 ± 49,647 dpm; in series [4], 604,061 ± 59,989 dpm. Also, the “% Control (proliferation)” value is 20% in series [1], 53% in series [2], 52% in series [3] and 53% in series [4]. The “EGF receptor binding, % of control levels” value in the series with EGF receptor is 13%-30%. For the same substance, in the series on U87 gliomas (100 μM versus 0, 1, 10 μM, 50 μl intratumoral on alternate days for 8 days), the “Suppression of tumor growth, comparison of concentrations” value is “most effective in suppressing tumor growth”. For the same substance, the “Change in tumor size at day 21” value in the series with U87 gliomas is “no significant change”. The “Animals with increased survival times” value in series [5] is given as 25%. For the same substance, the “Factor by which the dose used is below the toxic level for antisense in the brain” value in series [6] is 30 times.

As for “5'-TGTAGAATTCCAGTGGTTCTT-3' (antisense TGTAGAATTCCAGTGGTTCTT; chemistry not given here) [AONcmyb(182-188)]”, the “3H-thymidine incorporation, mean ± SEM” value in series [1] is on record as 92,968 ± 37,259 dpm; in series [2], 78,457 ± 3,224 dpm; in series [3] it was 588,082 ± 25,836 dpm; in series [4], 517,725 ± 105,450 dpm. The “% Control (proliferation)” value amounted to 25% in series [1], 61% in series [2], 76% in series [3] and 45% in series [4]. For the same substance, the “EGF receptor binding, % of control levels” value in the series with EGF receptor is 30%-35%. In addition, the “Change in tumor size at day 21” value with U87 gliomas is “no significant change”.
